The results in this text go back to patent publication US9512139B2, “Conformationally constrained, fully synthetic macrocyclic compounds” (POLYPHOR AG, priority 2009, dated 2016).

As a reminder, the IC50 is the concentration that inhibits the measured activity by half. Low values mean higher potency, high ones lower potency. For orientation: inhibition means the relative decrease from the control value, in per cent. The term half-life denotes the time needed for the level to fall by half in the phase considered. Low readings indicate rapid decline, high ones slow decline.

Where two headings read alike, the source gives them in different places.

For data set [1] the following is noted: amide bond.
For data set [2], the target named is T1, Prostaglandin F (FP) Receptor (Homo sapiens, UniProt P43088).
T1 construct: host or cells: Ca2+ optimized hematopoietic cell lines (rat)
The data set can be described thus: Ca2+ assay (FLIPR) for the GPCR prostaglandin F (FP) receptor, agonist and antagonist mode. The class given is cell-based. A digest of the protocol: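 Ca2+-optimized rat hematopoietic cells carrying the receptor were loaded with Fluo-8 in HBSS/20 mM HEPES/2.5 mM probenecid and read on FLIPR. Agonist mode: 10 min compound incubation at 25 °C, % activation relative to Emax. Antagonist mode: stimulation at EC80 of the reference agonist (prostaglandin F2α for FP, 2MeSATP for P2Y1), fluorescence monitored 180 s.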

Data set [3] is described as follows: in vitro. In kind it is in vitro ADME, human. As to conditions: human, plasma; for Plasma Stability T½ [min] hum / Plasma Stability 240 min hum [% remain.]: 10 µM; for Plasma Stability 240 min hum [% remain.]: 4 h.
A short description of data set [4]: in vitro. In kind it is in vitro ADME, mouse. As to conditions: both, CD-1, mouse, plasma, 10 µM; for Plasma Stability 240 min mouse [% remain.]: 4 h.
Data set [5] is described as follows: Metabolic stability assay, human microsomes. The conditions noted are these: human, microsomes; for half-life at 10 µM: both sexes; for Metabolic Stability 60 min hum [% remain.]: both, 1 h, 10 µM. The class given is in vitro ADME.
A short description of data set [6]: Metabolic stability assay, CD-1 mouse microsomes. In kind it is in vitro ADME. As to conditions: CD-1, mouse, microsomes; for half-life at 10 µM: both sexes; for Metabolic Stability 60 min mouse [% remain.]: both, 1 h, 10 µM.
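Wherever Plasma Stability 240 min mouse [% remain.] is given: sodium citrate stabilized mouse plasma, parent compound quantified by HPLC/MS/MS relative to its peak area at time zero, run in triplicate.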
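Wherever Plasma Stability T½ [min] mouse is given: sodium citrate stabilized mouse plasma, parent compound quantified by HPLC/MS/MS relative to its peak area at time zero, run in triplicate.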

T1 sequence (P43088 whole entry): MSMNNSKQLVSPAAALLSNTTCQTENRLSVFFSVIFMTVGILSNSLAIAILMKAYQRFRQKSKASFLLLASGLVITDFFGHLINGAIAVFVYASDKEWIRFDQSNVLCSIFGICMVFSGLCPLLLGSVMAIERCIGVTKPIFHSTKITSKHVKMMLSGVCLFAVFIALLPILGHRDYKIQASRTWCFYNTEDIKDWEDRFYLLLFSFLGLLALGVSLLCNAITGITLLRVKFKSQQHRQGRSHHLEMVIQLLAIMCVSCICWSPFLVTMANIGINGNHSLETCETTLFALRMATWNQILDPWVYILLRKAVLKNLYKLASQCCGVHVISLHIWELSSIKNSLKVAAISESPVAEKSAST

`CC(C)(C)OC(=O)N[C@@H]1C[C@H]2COc3ccc(Br)cc3C(=O)NC3(CCCC3)C(=O)N[C@@H](Cc3ccc4ccccc4c3)CC(=O)N2C1` had a ring closure, yield of all isomers in data set [1] (from CC(C)(C)OC(=O)N[C@H]1CN[C@H](COc2ccc(Br)cc2C(=O)NC2(C(=O)N[C@H](CC(=O)O)Cc3ccc4ccccc4c3)CCCC2)C1, T3P, i-Pr2NEt, CH2Cl2, 1.0 mM, 25.0 °C, 2.0 h) of 68%.
In the case of `CC(C)(C)OC(=O)N[C@H]1CCCCSc2cccc(c2)OC[C@@H]2C[C@H](OCc3ccc(Br)cc3)CN2C1=O`, in data set [1] (from CC(C)(C)OC(=O)N[C@@H](CCCCSc1cccc(OC[C@@H]2C[C@H](OCc3ccc(Br)cc3)CN2)c1)C(=O)O, T3P, i-Pr2NEt, CH2Cl2, 2.0 mM, 25.0 °C, 4.0 h), the ring closure, yield of all isomers is 99%.
The molecule `CC(C)(C)OC(=O)N[C@H]1C[C@H]2COc3cccc(c3)C(=O)NCCC[C@H](NC(=O)OCc3ccccc3)C(=O)N2C1` had a ring closure, yield of all isomers in data set [1] (from CC(C)(C)OC(=O)N[C@@H]1CN[C@H](COc2cccc(C(=O)NCCC[C@H](NC(=O)OCc3ccccc3)C(=O)O)c2)C1, T3P, i-Pr2NEt, CH2Cl2, 5.37 mM) of 71%.
`CN1C(=O)c2cc(F)ccc2OC[C@@H]2CN(C(=O)OC(C)(C)C)CCN2C(=O)CC[C@H]1C(=O)OCc1ccccc1`: in data set [1] (from CN(C(=O)c1cc(F)ccc1OC[C@@H]1CN(C(=O)OC(C)(C)C)CCN1)[C@@H](CCC(=O)O)C(=O)OCc1ccccc1, T3P, CH2Cl2, 0.57 mM, 25.0 °C, 20.0 h), the ring closure, yield of all isomers worked out at 77%.
In turn, `CN1C(=O)c2cc(F)ccc2OC[C@@H]2C[C@H](NC(=O)OCC[Si](C)(C)C)CN2C(=O)CC[C@H]1C(=O)OCc1ccccc1` registered a ring closure, yield of all isomers in data set [1] (from CN(C(=O)c1cc(F)ccc1OC[C@@H]1C[C@H](NC(=O)OCC[Si](C)(C)C)CN1)[C@@H](CCC(=O)O)C(=O)OCc1ccccc1, T3P, CH2Cl2, 10.0 mM, 25.0 °C, 20.0 h) of 61%.
For `CN1C(=O)c2cccc(c2)OC[C@@H]2C[C@H](NC(=O)OC(C)(C)C)CN2C(=O)COC[C@H]1C(=O)OCc1ccccc1`, the ring closure, yield of all isomers in data set [1] (from CN(C(=O)c1cccc(OC[C@@H]2C[C@H](NC(=O)OC(C)(C)C)CN2)c1)[C@@H](COCC(=O)O)C(=O)OCc1ccccc1, FDPP, DMF, 5.2 mM) came to 80%.
In data set [1] (from CN(CC(=O)O)C(=O)CC[C@@H](C(=O)OCc1ccccc1)N(C)C(=O)c1cc(F)ccc1OC[C@@H]1CN(C(=O)OC(C)(C)C)CCN1, T3P / i-Pr2NEt, CH2Cl2, 10.0 mM), `CN1CC(=O)N2CCN(C(=O)OC(C)(C)C)C[C@H]2COc2ccc(F)cc2C(=O)N(C)[C@H](C(=O)OCc2ccccc2)CCC1=O` showed a ring closure, yield of all isomers of 90%.
The molecule `CN1CC(=O)N2C[C@@H](NC(=O)OCC[Si](C)(C)C)C[C@H]2COc2cccc3c2C[C@@](NC(=O)OC(C)(C)C)(CC3)C(=O)N(C)C[C@H](NC(=O)OCc2ccccc2)C1=O` showed a ring closure, yield of all isomers in data set [1] (from CN(CC(=O)O)C(=O)[C@H](CN(C)C(=O)[C@]1(NC(=O)OC(C)(C)C)CCc2cccc(OC[C@@H]3C[C@H](NC(=O)OCC[Si](C)(C)C)CN3)c2C1)NC(=O)OCc1ccccc1, T3P, i-Pr2NEt, CH2Cl2, 10.0 mM, 2.0 h) of 44%.
As to `CN1CCCC[C@H](NC(=O)OCc2ccccc2)C(=O)N2C[C@@H](NC(=O)OC(C)(C)C)C[C@H]2COc2cncc(c2)C1=O`, in data set [1] (from CN(CCCC[C@H](NC(=O)OCc1ccccc1)C(=O)O)C(=O)c1cncc(OC[C@@H]2C[C@H](NC(=O)OC(C)(C)C)CN2)c1, T3P, CH2Cl2, 4.78 mM), the ring closure, yield of all isomers stood at 79%.
With `CN1CCC[C@H](NC(=O)OCc2ccccc2)C(=O)N2C[C@@H](Cc3ccccc3)C[C@H]2COc2cccc(c2)C1=O`, the ring closure, yield of all isomers in data set [1] (from CN(CCC[C@H](NC(=O)OCc1ccccc1)C(=O)O)C(=O)c1cccc(OC[C@@H]2C[C@H](Cc3ccccc3)CN2)c1, T3P, CH2Cl2, 4.5 mM, 25.0 °C, 0.5 h) came to 37%.
As for `C[C@H]1C(=O)NCCC(=O)N2C[C@H](NC(=O)c3ccccc3)C[C@H]2COc2cccc(c2)C(=O)N1C`, the ring closure, yield of all isomers in data set [1] (from *CNC(=O)CCCOc1cc(OC)c(CN(C(=O)c2ccccc2)[C@@H]2C[C@@H](COc3cccc(C(=O)N(C)[C@@H](C)C(=O)O)c3)N(C(=O)CCN)C2)c(OC)c1, FDPP, i-Pr2NEt, DMF, 67.0 mM, 30.0 h, 7 steps) was determined as 16%.
In data set [2], `CN1CCC[C@H](NC(=O)OCc2ccccc2)C(=O)N2C[C@@H](NC(=O)Cc3ccc4ccccc4c3)C[C@H]2COc2cccc(c2)C1=O` [Ex. 184, benzyl N-[(4S,6S,10S)-14-methyl-6-{[2-(2-naphthyl)acetyl]amino}-9,15-dioxo-2-oxa-8,14-diazatricyclo[14.3.1.0^4,8]icosa-1(20),16,18-trien-10-yl]carbamate] came in with an IC50 of 520 nM and an inhibition at 10 µM of 74%. Moreover, in the data set “in vitro [3]”, the Plasma Stability T½ [min] hum is over 240 min and the “Plasma Stability 240 min hum [% remain.]” value is on record as 66 % remain. Besides, in “in vitro [4]”, the Plasma Stability T½ [min] mouse is over 240 min and the “Plasma Stability 240 min mouse [% remain.]” value is 58 % remain. In data set [5], the half-life at 10 µM amounted to 15 min and the “Metabolic Stability 60 min hum [% remain.]” value is 0 % remain. In data set [6], the half-life at 10 µM turned out to be 22 min and the “Metabolic Stability 60 min mouse [% remain.]” value amounted to 0 % remain.
In the case of `CN1C[C@H](NC(=O)OCc2ccccc2)C(=O)N(C)CC(=O)N2C[C@@H](NC(=O)Cc3c[nH]c4ccccc34)C[C@H]2COc2cccc(c2)C1=O` [Ex. 200, benzyl N-[(4S,6S,13S)-6-{[2-(1H-indol-3-yl)acetyl]amino}-11,15-dimethyl-9,12,16-trioxo-2-oxa-8,11,15-triazatricyclo[15.3.1.0^4,8]henicosa-1(21),17,19-trien-13-yl]carbamate], in data set [2], the IC50 stood at 28000 nM and testing at 10 µM gave an inhibition of 38%. Further, in the data set “in vitro [3]”, the Plasma Stability T½ [min] hum is over 240 min and the “Plasma Stability 240 min hum [% remain.]” value is 91 % remain. Also, in “in vitro [4]”, the Plasma Stability T½ [min] mouse was over 240 min and the “Plasma Stability 240 min mouse [% remain.]” value turned out to be 100 % remain. Further, in data set [5], the half-life at 10 µM is 27 min and the “Metabolic Stability 60 min hum [% remain.]” value was found to be 12 % remain. In data set [6], the half-life at 10 µM worked out at 30 min and the “Metabolic Stability 60 min mouse [% remain.]” value stood at 26 % remain.
Regarding `CN1CCC[C@H](NC(=O)Cc2cccc3ccccc23)C(=O)N2C[C@@H](NC(=O)Cc3ccc4ccccc4c3)C[C@H]2COc2cccc(c2)C1=O` [Ex. 505, N-[(4S,6S,10S)-14-methyl-6-{[2-(2-naphthyl)acetyl]amino}-9,15-dioxo-2-oxa-8,14-diazatricyclo[14.3.1.0^4,8]icosa-1(20),16,18-trien-10-yl]-2-(1-naphthyl)acetamide], in data set [2], the IC50 was determined as 640 nM and the inhibition at 10 µM stood at 47%. Further, in “in vitro [3]”, the Plasma Stability T½ [min] hum was over 240 min and the “Plasma Stability 240 min hum [% remain.]” value was 100 % remain. Moreover, in the data set “in vitro [4]”, the Plasma Stability T½ [min] mouse is over 240 min and the “Plasma Stability 240 min mouse [% remain.]” value stood at 98 % remain. Moreover, in data set [5], the half-life at 10 µM was 21 min and the “Metabolic Stability 60 min hum [% remain.]” value came to 9 % remain. Further, in data set [6], the half-life at 10 µM is 13 min and the “Metabolic Stability 60 min mouse [% remain.]” value was determined as 3 % remain.
For the molecule `CN1CCC[C@H](NC(=O)Cc2cccc3ccccc23)C(=O)N2C[C@@H](NC(=O)Nc3cccc(N(C)C)c3)C[C@H]2COc2cccc(c2)C1=O` [Ex. 512, N-[(4S,6S,10S)-6-({[3-(dimethylamino)anilino]carbonyl}amino)-14-methyl-9,15-dioxo-2-oxa-8,14-diazatricyclo[14.3.1.0^4,8]icosa-1(20),16,18-trien-10-yl]-2-(1-naphthyl)acetamide], in data set [2], the IC50 was 120 nM and the inhibition at 10 µM amounted to 97%. Besides, in “in vitro [3]”, the Plasma Stability T½ [min] hum was over 240 min and the “Plasma Stability 240 min hum [% remain.]” value is 86 % remain. For the same molecule, in data set [5], the half-life at 10 µM was 17 min and the “Metabolic Stability 60 min hum [% remain.]” value was 8 % remain. For the same molecule, in data set [6], the half-life at 10 µM worked out at 12 min and the “Metabolic Stability 60 min mouse [% remain.]” value is 10 % remain.
Consider `CN1CCC[C@H](NC(=O)Cc2cccc(-c3ccccc3)c2)C(=O)N2C[C@@H](NC(=O)Nc3cccc(N(C)C)c3)C[C@H]2COc2cccc(c2)C1=O` [Ex. 525, 2-[1,1′-biphenyl]-3-yl-N-[(4S,6S,10S)-6-({[3-(dimethylamino)anilino]carbonyl}amino)-14-methyl-9,15-dioxo-2-oxa-8,14-diazatricyclo[14.3.1.0^4,8]icosa-1(20),16,18-trien-10-yl]acetamide], for which, in data set [2], the 50% inhibitory concentration (IC50) turned out to be 94 nM and testing at 10 µM gave an inhibition of 99%. In the data set “in vitro [3]”, the Plasma Stability T½ [min] hum is over 240 min and the “Plasma Stability 240 min hum [% remain.]” value came out at 100 % remain. Further, in data set [5], the half-life at 10 µM is 16 min and the “Metabolic Stability 60 min hum [% remain.]” value amounted to 13 % remain. Further, in data set [6], the half-life at 10 µM was 25 min and the “Metabolic Stability 60 min mouse [% remain.]” value turned out to be 29 % remain.
Take `CN1CCC[C@H](NS(=O)(=O)c2ccc(-c3ccccc3)cc2)C(=O)N2C[C@@H](NC(=O)Cc3ccc4ccccc4c3)C[C@H]2COc2cccc(c2)C1=O` [Ex. 527, N-[(4S,6S,10S)-10-[([1,1′-biphenyl]-4-ylsulfonyl)amino]-14-methyl-9,15-dioxo-2-oxa-8,14-diazatricyclo[14.3.1.0^4,8]icosa-1(20),16,18-trien-6-yl]-2-(2-naphthyl)acetamide]: in data set [2], the IC50 stood at 204 nM and testing at 10 µM gave an inhibition of 73%. In the data set “in vitro [3]”, the half-life at 10 µM was 109 min and the “Plasma Stability 240 min hum [% remain.]” value is listed as 26 % remain. Also, in data set [5], the half-life at 10 µM came to 22 min and the “Metabolic Stability 60 min hum [% remain.]” value was determined as 23 % remain. Further, in data set [6], the half-life at 10 µM worked out at 20 min and the “Metabolic Stability 60 min mouse [% remain.]” value is reported as 24 % remain.
